Values after ≈ are worked out from the molar mass of the structure shown. Like-named read-outs stand apart in the source and are kept apart here.
Experiments:
[1] = system: C. glabrata; test: Checkerboard FIC assay in combination with fluconazole (MIC alone and in combination, FICI); format: cell-based, Candida glabrata; conditions: for FICI of combination resulting in fluconazole MIC of: 2 ug/mL / FICI of combination resulting in fluconazole MIC of: 4 ug/mL / FICI of combination resulting in fluconazole MIC of: 8 ug/mL: FICI calculated using a fluconazole MIC of 16 μg/mL; for FICI of combination resulting in fluconazole MIC of: 2 ug/mL (value in parenthesis) / FICI of combination resulting in fluconazole MIC of: 4 ug/mL (value in parenthesis) / FICI of combination resulting in fluconazole MIC of: 8 ug/mL (value in parenthesis): FICI using a fluconazole MIC of 128 μg/mL; for MIC: Nakaseomyces glabratus; for Concentration of Methylgene compound to synergize fluconazole MIC to 2 ug/mL / Concentration of Methylgene compound to synergize fluconazole MIC to 4 ug/mL / Concentration of Methylgene compound to synergize fluconazole MIC to 8 ug/mL: in combination with fluconazole; for Concentration of Methylgene compound to synergize fluconazole MIC to 2 ug/mL: fluconazole MIC lowered to 2 ug/mL; for Concentration of Methylgene compound to synergize fluconazole MIC to 4 ug/mL: fluconazole MIC lowered to 4 ug/mL; for Concentration of Methylgene compound to synergize fluconazole MIC to 8 ug/mL: fluconazole MIC lowered to 8 ug/mL; for Multiple of compound MIC to synergize fluconazole MIC to 2 ug/mL / Multiple of compound MIC to synergize fluconazole MIC to 4 ug/mL / Multiple of compound MIC to synergize fluconazole MIC to 8 ug/mL: concentration in combination as multiple of the compound's MIC alone; for Multiple of compound MIC to synergize fluconazole MIC to 2 ug/mL: fluconazole MIC 2 ug/mL; for Multiple of compound MIC to synergize fluconazole MIC to 4 ug/mL: fluconazole MIC 4 ug/mL; for Multiple of compound MIC to synergize fluconazole MIC to 8 ug/mL: fluconazole MIC 8 ug/mL
Outline: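 C. glabrata was tested by CLSI broth microdilution checkerboard, crossing 2-fold dilutions of compound with 2-fold dilutions of fluconazole. The medium was RPMI with 0.165 M MOPS at pH 7.0, inoculated from a 0.5 McFarland suspension diluted 1:100, then incubated about 48 h at 35 °C. Single-agent MICs gave the FIC and FICI values.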

[2] = system: Candida albicans; test: Minimal Inhibitory Concentration (MIC) assay, broth microdilution per CLSI; format: cell-based; conditions: Candida albicans, read-out: Minimum Inhibitory Concentrations against Yeast Isolates, Candida albicans;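 also: two read times 24 hr and 48 hr of incubation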
Outline: (§1)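 Following CLSI procedure, compounds dissolved in DMSO on the assay day are diluted twofold and added to MOPS-buffered RPMI at pH 7.0. Saline suspensions of the yeasts, matched to 0.5 McFarland, are diluted 1:100 and inoculated, then plates incubate at 35° C for about 24-48 hr.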

[3] = system: Candida parapsilosis; test: as above; format: cell-based; conditions: Lodderomyces parapsilosis, read-out: Minimum Inhibitory Concentrations against Yeast Isolates, Candida parapsilosis;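 also: two read times 24 hr and 48 hr of incubation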
Outline: as §1

[4] = system: Candida glabrata; test: as above; format: cell-based; conditions: Nakaseomyces glabratus, read-out: Minimum Inhibitory Concentrations against Yeast Isolates, Candida glabrata;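 also: two read times 24 hr and 48 hr of incubation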
Outline: as §1

[5] = MIC of the example compound alone against C. glabrata in the checkerboard assay, approximately 48 hr, read-out: Methylgene MIC
[6] = test compound alone, C. glabrata, approx. 48 hr at 35° C., read-out: Compound MIC
[7] = 24 hr reading (first value of cell 24 hr/48 hr)
[8] = 48 hr reading (second value of cell 24 hr/48 hr)

Row | Structure (SMILES) | FICI of combination resulting in fluconazole MIC of: 2 ug/mL ([1]; C. glabrata) | FICI of combination resulting in fluconazole MIC of: 4 ug/mL ([1]; C. glabrata) | FICI of combination resulting in fluconazole MIC of: 8 ug/mL ([1]; C. glabrata) | FICI of combination resulting in fluconazole MIC of: 2 ug/mL (value in parenthesis) ([1]; C. glabrata) | FICI of combination resulting in fluconazole MIC of: 4 ug/mL (value in parenthesis) ([1]; C. glabrata) | FICI of combination resulting in fluconazole MIC of: 8 ug/mL (value in parenthesis) ([1]; C. glabrata) | MIC [1, 5] [µg/mL] | MIC [1, 6] [µg/mL] | Concentration of Methylgene compound to synergize fluconazole MIC to 2 ug/mL ([1]; C. glabrata) [µg/mL] | Concentration of Methylgene compound to synergize fluconazole MIC to 4 ug/mL ([1]; C. glabrata) [µg/mL] | Concentration of Methylgene compound to synergize fluconazole MIC to 8 ug/mL ([1]; C. glabrata) [µg/mL] | MIC [2, 7] [µg/mL] | MIC [2, 8] [µg/mL] | MIC [3, 7] [µg/mL] | MIC [3, 8] [µg/mL] | MIC [4, 7] [µg/mL] | MIC [4, 8] [µg/mL] | Multiple of compound MIC to synergize fluconazole MIC to 2 ug/mL [1] | Multiple of compound MIC to synergize fluconazole MIC to 4 ug/mL [1] | Multiple of compound MIC to synergize fluconazole MIC to 8 ug/mL [1]
1 | O=C(Cc1ccc(CCCCc2ccccc2NC(=O)CO)cc1)NO [Example 46, N-hydroxy-2-(4-(4-(2-(2-hydroxyacetamido)phe-nyl)butyl)phenyl)acetamide] | 0.563 | 0.625 | 0.500 | 0.516 | 0.531 | 0.313 | > 16 | > 16 | 16 | 16 | 8 | > 64 | > 64 | > 64 | > 64 | 64 (≈ 180 µM) | > 64 | – | – | –
2 | O=C(Cc1ccc(CCCCc2ccc(NC(=O)NCCN3CCOCC3)cc2)cc1)NO [Example 47, N-hydroxy-2-(4-(4-(4-(3-(2-morpholinoethyl)ureido)phenyl)butyl)phenyl)acetamide] | 0.563 | 0.375 | 0.500 | 0.516 | 0.281 | 0.313 | 16 | 16 | 8 | 4 | 4 | > 32 | > 32 | > 32 | > 32 | 4 (≈ 8.8 µM) | 16 (≈ 35.2 µM) | (½x) | (¼x) | (¼x)
3 | COC(=O)Nc1ccc(CCCCc2ccc(CC(=O)NO)cc2)cc1 [Example 48, methyl 4-(4-(4-(2-(hydroxyamino)-2-oxoethyl)phenyl)butyl) phenylcarbamate] | 0.188 | 0.188 | 0.313 | 0.141 | 0.094 | 0.125 | > 4 | > 4 | 1 | 0.5 | 0.5 | > 4 | > 4 | > 4 | > 4 | > 4 | > 4 | – | – | –
4 | CN1CCN(CCNC(=O)Nc2cccc(CCCCc3ccc(CC(=O)NO)cc3)c2)CC1 [Example 49, N-hydroxy-2-(4-(4-(3-(3-(2-(4-methylpiperazin-1-yl)ethyl)ureido)phenyl)butyl)phenyl)acetamide] | 0.188 | 0.250 | 0.313 | 0.141 | 0.156 | 0.125 | > 16 | > 16 | 4 | 4 | 2 | > 64 | > 64 | > 64 | > 64 | 16 (≈ 34.2 µM) | > 64 | – | – | –
5 | O=C(Cc1ccc(CCCCc2cccc(NC(=O)NCCN3CCOCC3)c2)cc1)NO [Example 50, N-hydroxy-2-(4-(4-(3-(3-(2-morpholinoethyl)urei-do)phenyl)butyl)phenyl)acetamide] | 0.313 | 0.250 | 0.375 | 0.266 | 0.156 | 0.188 | 16 | 16 | 4 | 2 | 2 | > 64 | > 64 | > 64 | > 64 | 8 (≈ 17.6 µM) | 16 (≈ 35.2 µM) | (¼x) | (⅛x) | (⅛x)
6 | O=C(Cc1ccc(CCCCc2ccc(NS(=O)(=O)CCN3CCOCC3)cc2)cc1)NO [Example 51, N-hydroxy-2-(4-(4-(4-(2-morpholinoethylsulfona-mido)phenyl)butyl)phenyl)acetamide] | 0.313 | 0.250 | 0.375 | 0.266 | 0.156 | 0.188 | 16 | 16 | 4 | 2 | 2 | > 64 | > 64 | > 64 | > 64 | 4 (≈ 8.41 µM) | 16 (≈ 33.6 µM) | (¼x) | (⅛x) | (⅛x)
7 | CN1CCN(CCS(=O)(=O)Nc2ccc(CCCCc3ccc(CC(=O)NO)cc3)cc2)CC1 [Example 52, N-hydroxy-2-(4-(4-(4-(2-(4-methylpiperazin-1-yl)ethylsulfonamido)phenyl)butyl)phenyl)acetamide] | > 0.563 | > 0.625 | > 0.500 | > 0.516 | > 0.531 | > 0.313 | > 16 | > 16 | 16 | 16 | 8 | > 64 | > 64 | > 64 | > 64 | 8 (≈ 16.4 µM) | > 64 | – | – | –
8 | O=C(Cc1ccc(CCCCc2cccc(NS(=O)(=O)CCN3CCOCC3)c2)cc1)NO [Example 53, N-hydroxy-2-(4-(4-(3-(2-morpholinoethylsulfona-mido)phenyl)butyl)phenyl)acetamide] | 0.313 | 0.250 | 0.375 | 0.266 | 0.156 | 0.188 | 16 | 16 | 4 | 2 | 2 | > 64 | > 64 | > 64 | > 64 | 16 (≈ 33.6 µM) | 32 (≈ 67.3 µM) | (¼x) | (⅛x) | (⅛x)
